Experimental data as given in ChEMBL document CHEMBL5303304, “EUbOPEN Chemogenomics Library - IncuCyte” (2023).
Several values for one entry are separate records, joined by “and”; a condition that tells them apart may be missing. Equal values may be shown once.

Assays:
Assay type in all cases: toxicity, cell-based
[1] = test system: U2OS; experiment: Incucyte cell viability with U2OS; details: human, 10 µM, compound concentration 10 uM
[2] = test system: Fibroblast; experiment: Incucyte cell viability with human fibroblast; details: 10 µM, compound concentration 10 uM
[3] = test system: HEK-293T; experiment: Incucyte cell viability with HEK293T; details: human, 10 µM, compound concentration 10 uM
Also: unitless GR value; below 1 slowed growth and below 0 cell loss.

Structure (SMILES) | Growth Rate ([1]; 6 h, replicate number 1) | Growth Rate ([1]; 12 h, replicate number 1) | Growth Rate ([1]; 18 h, replicate number 1) | Growth Rate ([1]; 18 h, replicate number 2) | Growth Rate ([1]; 24 h, replicate number 1) | Growth Rate ([1]; 24 h, replicate number 2) | Growth Rate ([2]; 6 h, replicate number 2) | Growth Rate ([2]; 12 h, replicate number 1) | Growth Rate ([2]; 12 h, replicate number 2) | Growth Rate ([2]; 18 h, replicate number 1) | Growth Rate ([2]; 18 h, replicate number 2) | Growth Rate ([3]; 6 h, replicate number 1) | Growth Rate ([3]; 6 h, replicate number 2) | Growth Rate ([3]; 12 h, replicate number 1) | Growth Rate ([3]; 12 h, replicate number 2) | Growth Rate ([3]; 18 h, replicate number 1) | Growth Rate ([3]; 18 h, replicate number 2) | Growth Rate ([3]; 24 h, replicate number 1) | Growth Rate ([3]; 24 h, replicate number 2) | Growth Rate ([1]; 12 h, replicate number 2) | also measured
Cc1cccc(CC(=O)N2CCc3c2ccc(-c2cn(C)c4ncnc(N)c24)c3F)n1 | -0.61 | 0.43 | 0.31 | 0.97 | 0.59 | 0.71 | 0.98 | 0.46 | 0.94 | 0.46 | 0.69 | 0.02 | 0.26 | 0.24 | 0.53 | 0.4 | 0.55 | 0.46 | 0.57 | – | Growth Rate ([2]; 6 h, replicate number 1): 0.64; Growth Rate ([2]; 24 h, replicate number 1): 0.52; Growth Rate ([2]; 24 h, replicate number 2): 0.58
NCC1CCC(CNc2nc(NCc3ccccc3OC(F)(F)F)ncc2[N+](=O)[O-])CC1 (configuration not stated) | 0.45 | 0.44 | 0.69 | 0.63 | 0.84 | 0.59 | 0.74 | 0.28 | 0.57 | -0.03 | 0.35 | -0.6 | -0.49 | -0.36 | -0.27 | -0.04 | -0.01 | 0.09 | 0.1 | 0.59 | Growth Rate ([1]; 6 h, replicate number 2): 0.71; Growth Rate ([2]; 0 h, replicate number 1): -0.85; Growth Rate ([2]; 6 h, replicate number 1): 0.48; Growth Rate ([2]; 24 h, replicate number 1): 0.04; Growth Rate ([2]; 24 h, replicate number 2): 0.35
CC(C)(C)S(=O)(=O)c1ccc2nccc(Nc3n[nH]c4ccc(F)cc34)c2c1 | 0.95 | 0.21 | 0.1 | -0.02 | 0.06 | -0.07 | 0.54 | 0.85 | 0.34 | 0.67 | 0.31 | -0.03 | -0.05 | -0.18 | -0.13 | -0.12 | -0.14 | -0.13 | -0.15 | 0.12 | Growth Rate ([1]; 0 h, replicate number 1): -0.83; Growth Rate ([1]; 6 h, replicate number 2): 0.2; Growth Rate ([2]; 24 h, replicate number 1): 0.45; Growth Rate ([2]; 24 h, replicate number 2): 0.22
Cc1nc(Nc2cnn(C3CCNCC3)c2)nc2c1N(C)C(=O)c1cc3ccccc3cc1N2C | 0.19 | -0.83 | 0.36 | 0.65 | 0.58 | 0.62 | 0.56 | -0.05 | 0.26 | -0.22 | 0.06 | 0.03 | 0.26 | 0.41 | 0.67 | 0.48 | 0.63 | 0.52 | 0.7 | 0.83 | Growth Rate ([1]; 6 h, replicate number 2): 0.81; Growth Rate ([2]; 6 h, replicate number 1): -0.01; Growth Rate ([2]; 24 h, replicate number 1): -0.14; Growth Rate ([2]; 24 h, replicate number 2): 0.17
COc1ncc(-c2cc(-c3ncc(CN4C[C@@H](C)O[C@@H](C)C4)o3)c3cn[nH]c3c2)cc1NS(C)(=O)=O | -0.31 | 0.56 | 0.72 | 0.21 | 0.82 | 0.36 | -0.56 | -0.39 | -0.16 | -0.21 | 0.05 | -0.44 | -0.64 | -0.15 | -0.32 | -0.01 | -0.2 | 0.05 | -0.11 | 0.02 | Growth Rate ([1]; 0 h, replicate number 2): -0.39; Growth Rate ([1]; 6 h, replicate number 2): -0.02; Growth Rate ([2]; 6 h, replicate number 1): -0.74; Growth Rate ([2]; 24 h, replicate number 1): -0.03; Growth Rate ([2]; 24 h, replicate number 2): 0.3
CNc1nc(Nc2ccc(C(=O)N3CCOCC3)cc2OC)nc2[nH]cc(Cl)c12 | – | – | – | – | – | – | – | – | – | – | – | 0.03 | -0.31 | 0.06 | -0.05 | 0.26 | 0.08 | 0.27 | 0.24 | 0.5 | Growth Rate ([1]; 0 h, replicate number 1): -0.99; Growth Rate ([2]; 0 h, replicate number 1): -0.95; Growth Rate ([2]; 0 h, replicate number 2): -0.43
CN1C(=O)c2ccccc2N(C)c2nc(Nc3cnn(C4CCNCC4)c3)ncc21 | -0.35 | 0.07 | 0.07 | 0.23 | 0.15 | 0.24 | – | – | 0.94 | – | 0.43 | -0.59 | -0.85 | -0.25 | -0.41 | 0.19 | -0.15 | 0.37 | 0.07 | 0.18 | Growth Rate ([1]; 0 h, replicate number 2): 0.12; Growth Rate ([1]; 6 h, replicate number 2): 0.15; Growth Rate ([2]; 0 h, replicate number 1): -0.99; Growth Rate ([2]; 0 h, replicate number 2): -0.07; Growth Rate ([2]; 24 h, replicate number 2): 0.43
COc1cc2nc(-c3cc(F)ccc3O)nc(N[C@@H]3CNC[C@H]3C(C)(C)O)c2cc1OC.Cl.Cl | – | -0.39 and -0.54 | -0.4 and -0.47 | -0.37 and -0.32 | -0.35 and -0.37 | -0.34 and -0.27 | -1 | – | – | 0.18 | – | -0.41 and -0.9 | -0.53 | -0.39 and -0.88 | -0.5 and -0.73 | -0.28 and -0.69 | -0.42 and -0.53 | -0.23 and -0.61 | -0.33 and -0.39 | -0.46 and -0.33 | Growth Rate ([1]; 0 h, replicate number 1): -0.66; Growth Rate ([2]; 0 h, replicate number 1): -1; Growth Rate ([2]; 0 h, replicate number 2): 0.21; Growth Rate ([2]; 6 h, replicate number 1): -0.98; Growth Rate ([2]; 24 h, replicate number 1): 0.06
Nc1ncnc2[nH]c(-c3ccccc3)nc12 | – | – | – | 0.95 | – | – | 0.95 | 0.88 | 0.9 | – | – | 0.83 | 0.23 | 0.87 | 0.55 | 0.8 | 0.68 | 0.85 | 0.78 | 0.9 | Growth Rate ([1]; 0 h, replicate number 1): -1; Growth Rate ([1]; 0 h, replicate number 2): 0.55; Growth Rate ([1]; 6 h, replicate number 2): 0.92; Growth Rate ([2]; 0 h, replicate number 2): 0.44
